In the assay the target is T1, E3 ubiquitin-protein ligase XIAP [241-356] (Homo sapiens, UniProt P98170).
T1 construct: 241-356
Put plainly: Fluorescence Polarization Competitive Binding Assay. Conditions: pH 7.5; 22 °C. For orientation: Polarisation of emitted light reports the rotation of a fluorescent probe.

T1 sequence (P98170 241-356): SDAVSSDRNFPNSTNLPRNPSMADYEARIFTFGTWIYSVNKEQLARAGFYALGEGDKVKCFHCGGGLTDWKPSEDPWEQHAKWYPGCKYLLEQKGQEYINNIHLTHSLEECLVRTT
Procedure: A quantitative in vitro binding assay using the fluorescence polarization (FP) based method was developed and used to determine the binding affinity of Smac mimetics to XIAP protein. The polarization values were measured after 3 hrs of incubation when the binding reached equilibrium. […] Curve fitting was performed using Prism ([sequence]). The binding affinity (Ki) of tested compound was calculated using the equation developed for computing the Ki value in FP-based binding assays.

Turning to `C[C@H](N)C(=O)N[C@H]1CC[C@H]2CC[C@@H](C(=O)Nc3ccccc3)N2C1=O` [(3S,6S,8aS)-6-[(2S)-2-aminopropanamido]-5-oxo-N-phenyl-octahydroindolizine-3-carboxamide], the Ki was more than 100 µM.

What is called Ki is the equilibrium dissociation constant of an inhibitor or competing ligand from its target.

For the origin of these results see BindingDB's records for doi:10.1021/jm0499108 (University of Michigan, 2004).
